Assay results as given in article PMC12645191, “Dicarboxylate and dicarboxylic acid appended supramolecular self-associating amphiphiles as antimicrobial agents against high priority bacterial pathogens” (Organic & Biomolecular Chemistry, 2025).

How the values were obtained:
Caco-2 cell line = test: bi-directional permeability in Caco-2 cell line; format: in vitro ADME, human
Method: Metabolic stability was assessed in mouse and rat liver microsomes. Microsomes are subcellular fractions of hepatocytes and contain CYP450s, the predominant enzymes involved in first-pass metabolism.[66] […] A plasma protein binding assay was performed to assess the extent of compound binding to plasma proteins. This is key as only unbound compound is free to distribute and exert a pharmacological effect. […] To assess the potential for this sub-class of SSAs to be developed as drugs for oral administration, Caco-2 permeability assays were also performed, as a cellular model indicative of human intestinal permeability. […]
Sample analysis was by electrospray ionisation. […]
Bi-directional Permeability in Caco-2 Cell Line:
The bi-directional permeability in Caco-2 cell lines was determined by seeding cells onto an HTS Transwell plate. Cells were cultivated for 14-18 days in a cell culture incubator at 37 °C, 5 % CO2, 95 % relative humidity. Cell culture medium was replaced every other day. To assess monolayer integrity the transepithelial electrical resistance (TEER) across the monolayer was measured using Millicell Epithelial volt-ohm meter prior to assay and Lucifer yellow (LY) fluorescence measurement post-assay.
Test and control compounds were prepared in DMSO and diluted in Hank’s Balanced Saline […]
Solution (HBSS, pH 7.4) to a final concentration of 5 or 10 µM. Compound was added to the […]
donor compartment of the transwell plate for both apical to basolateral (A>B) and basolateral […]
to apical (B>A) measurements, with blank HBSS being added to the receiver compartment.
The transwell plate was then incubated at 37 °C, 5 % CO2 for 2 hours.

[1] = protein binding in human plasma by equilibrium dialysis; format: in vitro ADME
Method: Metabolic stability was assessed in mouse and rat liver microsomes. […] A plasma protein binding assay was performed to assess the extent of compound binding to plasma proteins. This is key as only unbound compound is free to distribute and exert a pharmacological effect. […] To assess the potential for this sub-class of SSAs to be developed as drugs for oral administration, Caco-2 permeability assays were also performed, as a cellular model indicative of human intestinal permeability. […] The […] MS/MS analysis. Samples were analysed using a Shimadzu liquid chromatography system coupled to a Triple Quad 6500+ mass spectrometry (AB Inc.) Separation of compounds was achieved using an HSS T3 column (50 x 2.1 mm) at a temperature of 40 °C and a binary mobile phase gradient at a flow rate of 0.7 mL/min. […] This was ramped to 95 % solvent B at 0.7 minutes, held for 0.5 minutes and then […] returned to initial conditions. Sample analysis was by electrospray ionisation. Protein Binding Measurements in Human Plasma by Using Equilibrium Dialysis Method : The fraction unbound in human plasma (P -KB, Ltd People's hospital of Shandong) were measured using 96-well Equilibrium Dialysis Plate (HTDialysis LLC, Gales Ferry, CT). Human plasma containing 5 μM test compound were dialysed against dialysis buffer (PBS) with initial samples taken to allow for assessment of plasma stability and recovery before the plate was incubated for 6 hours at 37 °C at 5 % CO2. Samples were removed at 6 hours, and all samples […] appropriate analytical internal standard. Samples were centrifuged at 3,220 g for 30 minutes (Eppendorf 5810R) to precipitate protein and enable sampling of supernatant prior to appropriate dilution for liquid chromatography mass -spectrometry (LC-MS/MS) analysis. Samples were analysed using a Shimadzu coupled to a triple Quad 6500 + (AB Inc., Illinois). Separation of analytes was achieved using a Xselect Hss T3 (2.1 x 50 mm) column at a temperature of 40 °C and a binary mobile phase gra dient at a flow rate of 0.8 mL/min. Initial […] formic acid in acetonitrile); this was ramped to 98 % B at 0.5 min, held for 0.4 min and then immediately returned to initial conditions. Sample analysis was by electrospray ionisation in positive ion mode. Bi-directional Permeability in Caco-2 Cell Line: The bi-directional permeability in Caco-2 cell lines was determined by seeding cells onto an HTS Transwell plate. Cells were cultivated for 14-18 days in a cell culture incubator at 37 °C, 5 % CO2, 95 % relative humidity. Cell culture medium was replaced every other day. To assess monolayer integrity the transepithelial electrical resistance (TEER) across the monolayer was measured using Millicell Epithelial volt-ohm meter prior to assay and Lucifer yellow (LY) fluorescence measurement post-assay. Test and control compounds were prepared in DMSO and diluted in Hank's Balanced Saline […] Compound was added to the donor compartment of the transwell plate for both apical to basolateral (A>B) and basolateral to apical (B>A) measurements, with blank HBSS being added to the receiver compartment. The transwell plate was then incubated at 37 °C, 5 % CO2 for 2 hours. 5

[2] = Caco-2, 5 or 10 µM, HBSS pH 7.4, 2 hours

SMILES	Efflux Ratio (Caco-2 cell line; Caco-2)	Recovery (%) AP-BL (Caco-2 cell line; Caco-2) [%]	Recovery (%) BL-AP (Caco-2 cell line; Caco-2) [%]	Papp (A-B) (Caco-2 cell line; [2])	Papp (B-A) (Caco-2 cell line; [2])	remaining at 6 h, 5 µM ([1]; human plasma, 5 µM, 37 °C) [%]	% Unbound ([1]; human, plasma) [%]	fraction unbound ([1]; human, plasma)
C[C@H]1O[C@@H](O[C@H]2[C@@H](O)C[C@H](O[C@H]3[C@@H](O)C[C@H](O[C@H]4CC[C@@]5(C)[C@H](CC[C@@H]6[C@@H]5C[C@@H](O)[C@]5(C)[C@@H](C7=CC(=O)OC7)CC[C@]65O)C4)O[C@@H]3C)O[C@@H]2C)C[C@H](O)[C@@H]1O [Digoxin, reference compound]	45.59	95.92	99.20	0.42 10-6, cm/s	18.74 10-6, cm/s	–	–	–
CC(=O)N1CCN(c2ccc(OCC3COC(Cn4ccnc4)(c4ccc(Cl)cc4Cl)O3)cc2)CC1 (centres unmarked) [Ketoconazole, reference compound]	–	–	–	–	–	101	0.86	0.0086
